In patent publication US8895561B2, “Compounds and methods for treating candidiasis and aspergillus infections” (Cellceutix Corporation, priority 2012, dated 2014):
≈ marks a conversion by molar mass, not a printed value. Like-named read-outs stand apart in the source and are kept apart here. Each block holds one molecule with its values, some of them ahead of it.

Tests used:
C. albicans GDH2346 [1] = experiment: Candida MIC, CLSI M27-A3; assay type: cell-based; settings: Candida albicans, GDH2346; Table 5; read-out: MIC C. albicans
Method: (§1) Candida MIC assays were determined in accordance with CLSI guidelines M27-A3 using a clinically isolated C. albicans strain, GDH2346.50% human serum was added to determine activity in the presence of serum.

A. viscosis = experiment: Commensal bacteria MIC, broth microdilution; assay type: cell-based
Method: (§2) Bacterial MICs were determined using a broth microdilution assay under standard
(§3) CLSI conditions Bacteria strains: clinical isolates; yeast strains: C. dubliniensis (NCPF3949), C. glabrata (ATCC 90030), C. krusei (ATCC 6258), C. parapsilosis (ATCC 22019), and C. tropicalis (ATCC 750). Cytotoxicity (EC50) was determined against mouse 3T3 fibroblasts, human transformed liver HepG2 cells, and human oral keratinocyte cell line, OKF6/TERT using an MTS viability assay.

S. salivarius = experiment: Commensal bacteria MIC, broth microdilution; assay type: cell-based; settings: Streptococcus salivarius
Method: as §2, §3

[2] = tested on: C. dubliniensis (NCPF3949); experiment: Yeast MIC; assay type: cell-based; settings: Candida dubliniensis, NCPF3949; Table 5; read-out: MIC C. dubliniensis
Method: as §1, §3

C. tropicalis (ATCC 750) = experiment: Yeast MIC; assay type: cell-based; settings: Candida tropicalis, ATCC750
Method: as §1, §3

[3] = tested on: C. parapsilosis (ATCC 22019); experiment: Yeast MIC; assay type: cell-based; settings: Lodderomyces parapsilosis, ATCC22019
Method: as §1, §3

C. glabrata (ATCC 90030) = experiment: Yeast MIC; assay type: cell-based; settings: Nakaseomyces glabratus, ATCC90030; Table 5; read-out: MIC C. glabrata
Method: as §1, §3

C. krusei (ATCC 6258) = experiment: Yeast MIC; assay type: cell-based; settings: Pichia kudriavzevii, ATCC6258
Method: as §1, §3

C. albicans GDH2346 [4] = experiment: Candida IC50, vegetative cells, by OD600 and fluorescence; assay type: cell-based; settings: Candida albicans, GDH2346
Method: Candida IC50s were determined by OD600 and fluorescence from vegetative cells and by MTS viability assay in the hyphal state. MICs were determined using a broth microdilution assay under standard CLSI conditions Bacteria strains: E. coli 25922 (EC), S. aureus 27660 (SA), E. faecalis 29212 (EF), P. aeruginosa 10145 (PA), and K. pneumoniae 13883 (KP). Cytotoxicity (EC50) was determined against mouse 3T3 fibroblasts, human transformed liver HepG2 cells, and human oral keratinocyte cell line, OKF6/TERT using an MTS viability assay. Candida IC50s<10 μg/mL, MICs<5 μg/mL and cytotoxicity EC50s>100 μM are indicated in green. MICs>5 μg/mL and cytotoxicity EC50s<100 μM are indicated in red. Candida IC50s (CA) were determined by OD600 and fluorescence from vegetative cells. MICs were determined using a broth microdilution assay under standard CLSI conditions Bacteria strains: E. coli 25922 (EC), S. aureus 27660 (SA), E. faecalis 29212 (EF), P. aeruginosa 10145 (PA), and K. pneumoniae 13883 (KP). Cytotoxicity (EC50) was determined against mouse 3T3 fibroblasts and human transformed liver HepG2 cells using an MTS viability assay. For determination of anti-Candida IC50s, the method was modified by using RPMI/MOPS buffer pH 6.3 and by addition of FDGlu, a substrate for the yeast enzyme exoglucanase which is secreted during cell growth. This provides a fluorescent readout for cell growth which was used in addition to the traditional optical density measure of growth. OD600 and fluorescence were determined at 24 and 48 hours and the average of all 4 reads was used for the final IC50 determination.

[5] = tested on: C. albicans GDH2346 hyphal biofilm; experiment: Candida IC50 in the hyphal state / hyphal biofilm, MTS viability assay; assay type: cell-based; settings: Candida albicans
Method: Candida IC50s were determined by OD600 and fluorescence from vegetative cells and by MTS viability assay in the hyphal state. MICs were determined using a broth microdilution assay under standard CLSI conditions Bacteria strains: E. coli 25922 (EC), S. aureus 27660 (SA), E. faecalis 29212 (EF), P. aeruginosa 10145 (PA), and K. pneumoniae 13883 (KP). Cytotoxicity (EC50) was determined against mouse 3T3 fibroblasts, human transformed liver HepG2 cells, and human oral keratinocyte cell line, OKF6/TERT using an MTS viability assay. Candida IC50s<10 μg/mL, MICs<5 μg/mL and cytotoxicity EC50s>100 μM are indicated in green. MICs>5 μg/mL and cytotoxicity EC50s<100 μM are indicated in red. To form the biofilm, yeast were grown in RPMI/MOPS, 0.4% sucrose pH7.4 media supplemented with 10% FBS in tissue culture-treated flat bottom 96 well plates for 48 hours. The filamentous yeast cultures were then vigorously washed to remove any non-filamentous, non-attached yeast. The remaining attached filamentous biofilm yeast were incubated in saline containing serially diluted compounds for 24 hours. The cultures were aspirated to remove compound, rinsed and overlayed with RPMI/MOPS, 0.4% sucrose pH7.4 media. Biofilm viability was measured using a cell proliferation assay (CellTiter96 Aqueous Kit from Promega) and IC50s were determined using Prism GraphPad software (nonlinear fit, Table 3).

[6] = Cytotoxicity, MTS viability assay; assay type: cell-based, human; settings: Table 6
Method: (§4) Candida IC50s were determined by OD600 and fluorescence from vegetative cells and by MTS viability assay in the hyphal state. MICs were determined using a broth microdilution assay under standard CLSI conditions Bacteria strains: E. coli 25922 (EC), S. aureus 27660 (SA), E. faecalis 29212 (EF), P. aeruginosa 10145 (PA), and K. pneumoniae 13883 (KP). Cytotoxicity (EC50) was determined against mouse 3T3 fibroblasts, human transformed liver HepG2 cells, and human oral keratinocyte cell line, OKF6/TERT using an MTS viability assay. Candida IC50s<10 μg/mL, MICs<5 μg/mL and cytotoxicity EC50s>100 μM are indicated in green. MICs>5 μg/mL and cytotoxicity EC50s<100 μM are indicated in red.
(§5) Candida IC50s (CA) were determined by OD600 and fluorescence from vegetative cells. MICs were determined using a broth microdilution assay under standard CLSI conditions Bacteria strains: E. coli 25922 (EC), S. aureus 27660 (SA), E. faecalis 29212 (EF), P. aeruginosa 10145 (PA), and K. pneumoniae 13883 (KP). Cytotoxicity (EC50) was determined against mouse 3T3 fibroblasts and human transformed liver HepG2 cells using an MTS viability assay.
as §3

A. fumigatus (A1163) = experiment: Anti-Aspergillus screen, CLSI M38-A, visual inhibition of growth; assay type: cell-based; settings: screening concentration 10 μM, 24-48 hours
Method: (§6) The in vitro efficacy of a library of compounds was assessed for antifungal activity against A. niger (AN1), A. fumigatus ([…]) and A. flavus (NRRL3357) and compared to that of Itraconazole. For a subset of compounds selected based upon efficacy in the screening study a full MIC profile was conducted. Efficacy of test articles was determined in RPMI 1640 broth with MOPS buffered to pH7.2 in accordance with CLSI guidelines M38-A for Antifungal Susceptibility Testing of Filamentous Fungi. The method was modified by using flat well plates to allow microscopic identification of growth. The final screening concentration of each test article was 10 μM. Assay plates were incubated aerobically at 37° C. for 24-48 hours. Following incubation, plates were assessed visually (by eye and microscopically) for inhibition of growth. Inhibition was recorded at 50%, 80% and 100% inhibition compared to the positive control.

A. niger (AN1) = experiment: as above; assay type: cell-based; settings: screening concentration 10 μM, 24-48 hours
Method: as §6

A. flavus (NRRL3357) = experiment: as above; assay type: cell-based; settings: screening concentration 10 μM, 24-48 hours
Method: as §6

mouse 3T3 fibroblasts = experiment: Cytotoxicity, MTS viability assay; assay type: cell-based; settings: Mus musculus, NIH3T3; cytotoxicity
Method: as §4, §5, §3

[7] = tested on: human transformed liver HepG2 cells; experiment: Cytotoxicity, MTS viability assay; assay type: cell-based; settings: Homo sapiens, HepG2; cytotoxicity
Method: as §4, §5, §3

[8] = tested on: human oral keratinocyte cell line, OKF6/TERT; experiment: Cytotoxicity, MTS viability assay; assay type: cell-based
Method: as §4, §3

E. coli 25922 = experiment: Bacterial MIC, broth microdilution, CLSI; assay type: cell-based; settings: Escherichia coli; E. coli 25922
Method: as §4, with “red. Candida IC50s (CA) were determined by OD600 and fluorescence from vegetative cells. MICs were determined using a broth microdilution assay under standard CLSI conditions Bacteria strains: E. coli 25922 (EC), S. aureus 27660 (SA), E. faecalis 29212 (EF), P. aeruginosa 10145 (PA), and K. pneumoniae 13883 (KP). Cytotoxicity (EC50) was determined against mouse 3T3 fibroblasts and human transformed liver HepG2 cells using an MTS viability assay.” for “red.”

P. aeruginosa 10145 = experiment: Bacterial MIC, broth microdilution, CLSI; assay type: cell-based; settings: Pseudomonas aeruginosa; P. aeruginosa 10145
Method: as §4, with “red. Candida IC50s (CA) were determined by OD600 and fluorescence from vegetative cells. MICs were determined using a broth microdilution assay under standard CLSI conditions Bacteria strains: E. coli 25922 (EC), S. aureus 27660 (SA), E. faecalis 29212 (EF), P. aeruginosa 10145 (PA), and K. pneumoniae 13883 (KP). Cytotoxicity (EC50) was determined against mouse 3T3 fibroblasts and human transformed liver HepG2 cells using an MTS viability assay.” for “red.”

K. pneumoniae 13883 = experiment: Bacterial MIC, broth microdilution, CLSI; assay type: cell-based; settings: Klebsiella pneumoniae
Method: as §4, with “red. Candida IC50s (CA) were determined by OD600 and fluorescence from vegetative cells. MICs were determined using a broth microdilution assay under standard CLSI conditions Bacteria strains: E. coli 25922 (EC), S. aureus 27660 (SA), E. faecalis 29212 (EF), P. aeruginosa 10145 (PA), and K. pneumoniae 13883 (KP). Cytotoxicity (EC50) was determined against mouse 3T3 fibroblasts and human transformed liver HepG2 cells using an MTS viability assay.” for “red.”

S. aureus 27660 = experiment: Bacterial MIC, broth microdilution, CLSI; assay type: cell-based; settings: Staphylococcus aureus; S. aureus 27660
Method: as §4, with “red. Candida IC50s (CA) were determined by OD600 and fluorescence from vegetative cells. MICs were determined using a broth microdilution assay under standard CLSI conditions Bacteria strains: E. coli 25922 (EC), S. aureus 27660 (SA), E. faecalis 29212 (EF), P. aeruginosa 10145 (PA), and K. pneumoniae 13883 (KP). Cytotoxicity (EC50) was determined against mouse 3T3 fibroblasts and human transformed liver HepG2 cells using an MTS viability assay.” for “red.”

E. faecalis 29212 = experiment: Bacterial MIC, broth microdilution, CLSI; assay type: cell-based; settings: Enterococcus faecalis; E. faecalis 29212
Method: as §4, with “red. Candida IC50s (CA) were determined by OD600 and fluorescence from vegetative cells. MICs were determined using a broth microdilution assay under standard CLSI conditions Bacteria strains: E. coli 25922 (EC), S. aureus 27660 (SA), E. faecalis 29212 (EF), P. aeruginosa 10145 (PA), and K. pneumoniae 13883 (KP). Cytotoxicity (EC50) was determined against mouse 3T3 fibroblasts and human transformed liver HepG2 cells using an MTS viability assay.” for “red.”

[9] = vegetative cultures, read-out: Anti-C. albicans GDH2346 Vegetative (IC50)
[10] = 48 h, 2-day hyphal biofilm cultures, read-out: Anti-C. albicans GDH2346 Hyphal (IC50)
[11] = human, HepG2 cells (transformed liver), read-out: Cytotoxicity EC50 Human HepG2
[12] = mouse, 3T3 fibroblasts, read-out: Cytotoxicity EC50 Mouse 3T3
[13] = Table 6, read-out: IC50 C. albicans

Compound: N=C(N)NCCc1cccc(-c2ccc(-c3cccc(CCNC(=N)N)c3)s2)c1 [Compound 185]
MIC (C. albicans GDH2346 [1]): 2 µg/mL (≈ 4.92 µM)
MIC (A. viscosis): 4 µg/mL (≈ 9.84 µM)
MIC (S. salivarius): 8 µg/mL (≈ 19.7 µM)
MIC [2]: 2 µg/mL (≈ 4.92 µM)
MIC (C. tropicalis (ATCC 750)): 0.5 µg/mL (≈ 1.23 µM)
MIC [3]: 2 µg/mL (≈ 4.92 µM)
MIC (C. glabrata (ATCC 90030)): 2 µg/mL (≈ 4.92 µM)
MIC (C. krusei (ATCC 6258)): 2 µg/mL (≈ 4.92 µM)
IC50 (C. albicans GDH2346 [4]; [9]): 1.09 µg/mL (≈ 2.68 µM)
IC50 [5, 10]: 1 µg/mL (≈ 2.46 µM)

Compound: COc1cc(SCCNC(=N)N)c(C(F)(F)F)cc1NC(=O)c1cc(C(=O)Nc2cc(C(F)(F)F)c(SCCNC(=N)N)cc2OC)nc(SCCNC(=N)N)n1 [Cmpd 183]
EC50 [6, 11]: ≥ 1000 µM
EC50 [6, 12]: 478 µM
inhibition at 10 µM (A. fumigatus (A1163)): 100%
inhibition at 10 µM (A. niger (AN1)): 100%
inhibition at 10 µM (A. flavus (NRRL3357)): 100%
IC50 (C. albicans GDH2346 [4]; [13]): 2 µg/mL (≈ 2.31 µM)

Compound: NCCc1cc(Br)cc(C#Cc2cccc(C#Cc3cc(Br)cc(CCN)c3)c2)c1 [Compound 164]
IC50 (C. albicans GDH2346 [4]; [9]): 4.88 µg/mL (≈ 9.34 µM)
IC50 [5, 10]: 11 µg/mL (≈ 21.1 µM)

The next lines start with results.

IC50 (C. albicans GDH2346 [4]; [13]): 3.1 µg/mL (≈ 4.49 µM)
Compound: COc1ccc(CNC(=N)N)cc1NC(=O)c1cc(C(=O)Nc2cc(CNC(=N)N)ccc2OC)c(OCCC(C)C)cc1OCCC(C)C [Cmpd 184]
EC50 [6, 11]: 155 µM
EC50 [6, 12]: ≥ 1000 µM
inhibition at 10 µM (A. fumigatus (A1163)): 100%
inhibition at 10 µM (A. niger (AN1)): 100%
inhibition at 10 µM (A. flavus (NRRL3357)): 100%

IC50 (C. albicans GDH2346 [4]; vegetative cells, read-out: IC50 Candida, Vegetative): 4.1 µg/mL (≈ 7.31 µM)
EC50 (E. coli 25922): > 50 µg/mL
EC50 (P. aeruginosa 10145): > 50 µg/mL
EC50 (K. pneumoniae 13883): > 50 µg/mL
EC50 (S. aureus 27660): > 50 µg/mL
EC50 (E. faecalis 29212): > 50 µg/mL
IC50 ([5]; hyphal state, read-out: IC50 Candida, Hyphal): 7.5 µg/mL (≈ 13.4 µM)
Compound: NCCCOc1cccc(-n2cc(-c3ccc4ccc(-c5cn(-c6cccc(OCCCN)c6)nn5)cc4c3)nn2)c1 [Compound 138]
IC50 (mouse 3T3 fibroblasts): 406 µM
IC50 [7]: 502 µM
IC50 [8]: 491 µM
